In the supplement of paper PMC6045584:
± gives the standard deviation of the averaged measurements.

Assays:
EVEROLIMUS = compound: CO[C@H]1C[C@@H]2CC[C@@H](C)[C@@](O)(O2)C(=O)C(=O)N2CCCC[C@H]2C(=O)O[C@H]([C@H](C)C[C@@H]2CC[C@@H](OCCO)[C@H](OC)C2)CC(=O)[C@H](C)/C=C(\C)[C@@H](O)[C@@H](OC)C(=O)[C@H](C)C[C@H](C)/C=C/C=C/C=C/1C [EVEROLIMUS]; assay: surviving fraction relative to DMSO-only wells; higher = less growth inhibition; settings: exposure time: 5 days
How it was run: (§1)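 Viability values are CellTiter-Glo luminescence readings, given as surviving fraction against the median of DMSO-only wells. The readings were taken after 10 minutes at room temperature, following five days of continuous exposure to inhibitors at 0.5, 1, 5, 10, 50, 100, 500 and 1000 nM that began 24 hours after log-phase tumour cell lines were seeded at 250–500 cells per well in 384-well plates. Every line was screened three times and kept only if replicate Pearson r >0.7 and median Z' >0.3.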

[1] = compound: Cc1nc(Nc2n[nH]c3c2CN(C(=O)N[C@H](CN(C)C)c2ccccc2)C3(C)C)c2sccc2n1; assay: as above; settings: exposure time: 5 days
How it was run: as §1

Test System | surviving fraction (EVEROLIMUS; 0.5 nM) | surviving fraction (EVEROLIMUS; 1 nM) | surviving fraction (EVEROLIMUS; 5 nM) | surviving fraction (EVEROLIMUS; 10 nM) | surviving fraction (EVEROLIMUS; 50 nM) | surviving fraction (EVEROLIMUS; 100 nM) | surviving fraction (EVEROLIMUS; 500 nM) | surviving fraction (EVEROLIMUS; 1000 nM) | surviving fraction ([1]; 0.5 nM) | surviving fraction ([1]; 1 nM) | surviving fraction ([1]; 5 nM) | surviving fraction ([1]; 10 nM) | surviving fraction ([1]; 50 nM) | surviving fraction ([1]; 100 nM) | surviving fraction ([1]; 500 nM) | surviving fraction ([1]; 1000 nM)
CASKI CERVIX | 0.57 ± 0.035 | 0.506 ± 0.025 | 0.473 ± 0.018 | 0.402 ± 0.029 | 0.446 ± 0.021 | 0.389 ± 0.043 | 0.376 ± 0.0098 | 0.379 ± 0.014 | 0.713 ± 0.037 | 0.472 ± 0.0095 | 0.237 ± 0.0071 | 0.193 ± 0.0081 | 0.13 ± 0.013 | 0.0993 ± 0.012 | 0.0227 ± 0.0031 | 0.0183 ± 0.00058
CHLA90 AUTONOMIC GANGLIA | 0.634 ± 0.051 | 0.512 ± 0.026 | 0.342 ± 0.021 | 0.343 ± 0.011 | 0.372 ± 0.066 | 0.404 ± 0.091 | 0.355 ± 0.067 | 0.344 ± 0.085 | 0.916 ± 0.055 | 0.826 ± 0.037 | 0.58 ± 0.045 | 0.477 ± 0.018 | 0.38 ± 0.036 | 0.331 ± 0.0082 | 0.233 ± 0.018 | 0.2 ± 0.011
CME SYNOVIAL | 1.2 ± 0.12 | 1.2 ± 0.2 | 1.29 ± 0.071 | 1.15 ± 0.16 | 0.885 ± 0.096 | 0.828 ± 0.066 | 0.66 ± 0.085 | 0.77 ± 0.1 | 0.982 ± 0.12 | 1.32 ± 0.047 | 0.564 ± 0.077 | 1.42 ± 0.17 | 0.287 ± 0.018 | 1.34 ± 0.057 | 0.325 ± 0.025 | 1.31 ± 0.06
COLO320DM LARGE INTESTINE | 0.945 ± 0.056 | 0.983 ± 0.072 | 0.835 ± 0.081 | 0.843 ± 0.074 | 0.742 ± 0.017 | 0.779 ± 0.037 | 0.695 ± 0.047 | 0.652 ± 0.025 | 1.1 ± 0.089 | 1.04 ± 0.041 | 1.11 ± 0.035 | 1.1 ± 0.072 | 0.793 ± 0.055 | 0.745 ± 0.019 | 0.333 ± 0.011 | 0.388 ± 0.015
DU4475 BREAST | 0.429 ± 0.1 | 0.272 ± 0.054 | 0.148 ± 0.0015 | 0.161 ± 0.03 | 0.108 ± 0.031 | 0.125 ± 0.03 | 0.103 ± 0.0061 | 0.0877 ± 0.012 | 0.654 ± 0.12 | 0.452 ± 0.065 | 0.138 ± 0.048 | 0.0743 ± 0.013 | 0.038 ± 0.0095 | 0.029 ± 0.0056 | 0.0257 ± 0.0045 | 0.0277 ± 0.006
H23 LUNG | 0.811 ± 0.023 | 0.724 ± 0.011 | 0.567 ± 0.049 | 0.501 ± 0.039 | 0.488 ± 0.022 | 0.482 ± 0.034 | 0.405 ± 0.048 | 0.433 ± 0.03 | 0.989 ± 0.029 | 0.929 ± 0.051 | 0.578 ± 0.032 | 0.35 ± 0.025 | 0.26 ± 0.0067 | 0.23 ± 0.013 | 0.216 ± 0.0089 | 0.206 ± 0.023
HCC38 BREAST | 1.17 ± 0.022 | 1.01 ± 0.065 | 0.897 ± 0.11 | 0.925 ± 0.069 | 0.795 ± 0.08 | 0.888 ± 0.033 | 0.733 ± 0.024 | 0.852 ± 0.027 | 1.03 ± 0.25 | 0.943 ± 0.17 | 0.291 ± 0.038 | 0.255 ± 0.029 | 0.182 ± 0.02 | 0.186 ± 0.034 | 0.178 ± 0.034 | 0.0973 ± 0.011
HCC70 BREAST | 0.866 ± 0.073 | 0.749 ± 0.059 | 0.606 ± 0.017 | 0.536 ± 0.024 | 0.536 ± 0.052 | 0.543 ± 0.019 | 0.44 ± 0.054 | 0.429 ± 0.01 | 0.996 ± 0.059 | 0.895 ± 0.096 | 0.275 ± 0.035 | 0.089 ± 0.014 | 0.0497 ± 0.0061 | 0.038 ± 0.003 | 0.032 ± 0.0089 | 0.0307 ± 0.0061
HCC78 LUNG | 0.516 ± 0.13 | 0.674 ± 0.26 | 0.528 ± 0.11 | 0.627 ± 0.11 | 0.621 ± 0.1 | 0.599 ± 0.18 | 0.358 ± 0.052 | 0.327 ± 0.055 | 0.721 ± 0.087 | 0.967 ± 0.1 | 0.323 ± 0.047 | 0.454 ± 0.14 | 0.263 ± 0.027 | 0.231 ± 0.03 | 0.203 ± 0.036 | 0.21 ± 0.041
HCC202 BREAST | 1 ± 0.083 | 0.79 ± 0.055 | 0.548 ± 0.15 | 0.578 ± 0.13 | 0.383 ± 0.093 | 0.471 ± 0.1 | 0.44 ± 0.054 | 0.385 ± 0.14 | 1.27 ± 0.26 | 1.12 ± 0.07 | 0.855 ± 0.24 | 0.754 ± 0.042 | 0.58 ± 0.028 | 0.501 ± 0.12 | 0.226 ± 0.038 | 0.14 ± 0.049
